Test results: publication PMC7402526, “An in vitro quantitative systems pharmacology approach for deconvolving mechanisms of drug-induced, multilineage cytopenias” (PLoS Computational Biology, 2020)

Columns and labels:
Assay type in all cases: cell-based, human
[1] = system: multi-potent progenitors (MPPs); assay: MLTA, MPPs: concentration-response and QSP model fit; details: Homo sapiens; for Emax: 144 h, parameter from QSP model fitting, read-out: Emax_drug_MPP; for EC50: QSP model parameter, sheet EC50_parameters, MPPs
Protocol: (§1) A custom optimized cytokine cocktail was developed using commercially available cytokines (Peprotech, New Jersey) to facilitate simultaneous multi-lineage differentiation and self-renewal of freeze-thawed primary human bone marrow-derived CD34+ cells in SFEM II media (cells and media from StemCell Technologies, Vancouver). Cultures were carried out in ultra-low attachment 96-well plates (Corning, New York) with test article added on day 0 and cultured at 37°C, 85% relative humidity, and 5% CO2 for six days before interrogating drug impact via 17-parameter flow cytometry.
(§2) The flow cytometry panel used to define hematopoietic subsets was composed of CD34-PECy7, CD90-PECY5, CD38-AF488, CD371-PE, CD45Ra-BV421, CD14-BV605, CD42b-AF647, CD10-PEDazzle594, CD235a-PerCPCy5.5 (BioLegend, California), CD15-BUV395, CD41a-APCH7, CD71-BV786 (BD Biosciences, California), and DAPI for dead cell exclusion (ThermoFisher, California). In short, Day 6 cells were harvested, FcR-blocked (FcR binding inhibitor, ThermoFisher), surface-stained, then analyzed in a buffer containing TruCount Control Beads using a BD LSR Fortessa SORP fitted with a high-throughput sampler (BD Biosciences, California). Data was analyzed in Diva 6.0.2 and exported to CSV where after all cell data was transformed to cell per mL then normalized on a per-donor basis to untreated control wells to determine drug impact.
(§3) Donor material was collected and cultured as described above. The number of replicate donor samples per drug ranged from 2–7 and varied per drug (S1 Table). Drug treatment was added at time 0 and cells were maintained in culture for 6 days. Concentrations tested for each drug compound are contained in S1 Table. Concentrations were selected to span a range that is clinically useful. Following treatment, cell populations were measured using flow cytometry. We extracted cell counts from flow cytometry data, normalized to bead counts, and corrected for well volume.
(§4) Each well was normalized to the average of six vehicle control wells. For drugs that were tested across multiple runs of the assay, vehicle-normalized donor data were pooled, and we used the average of these pooled data for further modeling. Normalized data used as model inputs are included in S1 Table.
(§5) We implemented drug effects using an Emax model for the drug’s effect on each cell type. The 13 maximum effect parameters (EmaxT,C) are unitless and can vary between 0 and 2 and where a subscript, C, represents one of the previously described 13 cell types. We adapted a traditional Emax model using the equations below. We interpreted EmaxT values less than or equal to one as anti-proliferative, and EmaxT values greater than one as indicating a cell-killing mechanism in addition to anti-proliferation. The relationships for these effects are included in the model using the following equations. Eq 2 describes the drug anti-proliferative effect in the net proliferation rate for a given cell type. Eq 3 describes the cell-killing EmaxCK effect.
(§6) Towards the estimation of mechanistic parameters, we considered different formulations: (a) weighting the objective value to prioritize fitting dead cells and (b) using regularization methodology to encourage a parsimonious solution. We assessed the contributions of these formulations using mean-squared error and goodness of fit plots for drugs with known mechanisms. […] Further, we used L1 regularization to penalize parameters […] to help identify a parsimonious set of parameters to explain drug effects.

B cells (B-lin) = assay: MLTA, B-lin: concentration-response and QSP model fit; details: Homo sapiens, B-cell; for Emax: 144 h, parameter from QSP model fitting, read-out: Emax_drug_B; for EC50: QSP model parameter, sheet EC50_parameters, B
Protocol: as §1, §2, §3, §4, §5, §6

[2] = system: lymphocyte progenitors (LymP); assay: MLTA, LymP: concentration-response and QSP model fit; details: Homo sapiens, Lymphocyte; for Emax: 144 h, parameter from QSP model fitting, read-out: Emax_drug_LymP; for EC50: QSP model parameter, sheet EC50_parameters, LymP
Protocol: as §1, §2, §3, §4, §5, §6

MK cells (MK-lin) = assay: MLTA, MK: concentration-response and QSP model fit; details: Homo sapiens; for Emax: 144 h, parameter from QSP model fitting, read-out: Emax_drug_MK; for EC50: QSP model parameter, sheet EC50_parameters, MK
Protocol: as §1, §2, §3, §4, §5, §6

[3] = system: monocyte progenitors (monocyte prog); assay: MLTA, MonoP: concentration-response and QSP model fit; details: Homo sapiens, Monocyte; for Emax: 144 h, parameter from QSP model fitting, read-out: Emax_drug_MonoP; for EC50: QSP model parameter, sheet EC50_parameters, MonoP, read-out: EC50MonoP
Protocol: as §1, §2, §3, §4, §5, §6

[4] = system: late erythroid cells (Eryth II); assay: MLTA, ErythII: concentration-response and QSP model fit; details: Homo sapiens; for Emax: 144 h, parameter from QSP model fitting, read-out: Emax_drug_ErythroidII; for EC50: QSP model parameter, sheet EC50_parameters, Erythroid II, read-out: EC50ErythroidII
Protocol: as §1, §2, §3, §4, §5, §6

[5] = system: granulocyte-macrophage progenitor (GMPs); assay: MLTA, GMPs: concentration-response and QSP model fit; details: Homo sapiens; QSP model parameter, sheet EC50_parameters; GMPs
Protocol: as §1, §2, §3, §4, §5, §6

granulocytes (Gran-lin) = assay: MLTA, Gran: concentration-response and QSP model fit; details: Homo sapiens; for Emax: 144 h, parameter from QSP model fitting, read-out: Emax_drug_Gran; for EC50: QSP model parameter, sheet EC50_parameters, Gran
Protocol: as §1, §2, §3, §4, §5, §6

[6] = system: neutrophils (neutrophil-lin); assay: MLTA, Neut: concentration-response and QSP model fit; details: Homo sapiens, Neutrophil; for Emax: 144 h, parameter from QSP model fitting, read-out: Emax_drug_Neut; for EC50: QSP model parameter, sheet EC50_parameters, Neut
Protocol: as §1, §2, §3, §4, §5, §6

[7] = system: granulocyte progenitor (Gran-lin prog); assay: MLTA, GranP: concentration-response and QSP model fit; details: Homo sapiens; for Emax: 144 h, parameter from QSP model fitting, read-out: Emax_drug_GranP; for EC50: QSP model parameter, sheet EC50_parameters, GranP, read-out: EC50GranP
Protocol: as §1, §2, §3, §4, §5, §6

monocytes (monocyte-lin) = assay: MLTA, Mono: concentration-response and QSP model fit; details: Homo sapiens, Monocyte; for Emax: 144 h, parameter from QSP model fitting, read-out: Emax_drug_Mono; for EC50: QSP model parameter, sheet EC50_parameters, Mono
Protocol: as §1, §2, §3, §4, §5, §6

[8] = system: hematopoietic stem cells (HSCs); assay: Multi-lineage toxicity assay (MLTA), HSCs: concentration-response and QSP model fit; details: Homo sapiens, Hematopoietic stem cell; for Emax: 144 h, parameter from QSP model fitting, read-out: Emax_drug_HSC; for EC50: QSP model parameter, sheet EC50_parameters, HSCs
Protocol: as §1, §2, §3, §4, §5, §6

[9] = system: early erythroid cells (Eryth I); assay: MLTA, ErythI: concentration-response and QSP model fit; details: Homo sapiens; for Emax: 144 h, parameter from QSP model fitting, read-out: Emax_drug_ErythroidI; for EC50: QSP model parameter, sheet EC50_parameters, Erythroid I, read-out: EC50ErythroidI
Protocol: as §1, §2, §3, §4, §5, §6

Compound: Nc1ccn([C@@H]2O[C@H](CO)[C@@H](O)[C@@H]2O)c(=O)n1 [Cytarabine]
- Emax [1]: 0.0181%
- EC50 [1]: 122 nM
- Emax (B cells (B-lin)): 83.9%
- EC50 (B cells (B-lin)): 7.35 nM
- Emax [2]: 0.032%
- EC50 [2]: 69.7 nM
- Emax (MK cells (MK-lin)): 42.8%
- EC50 (MK cells (MK-lin)): 6.86 nM
- Emax [3]: 0.03%
- EC50 [3]: 28.7 nM
- Emax [4]: 2.92%
- EC50 [4]: 0.101 nM
- EC50 [5]: 3.37 nM
- Emax (granulocytes (Gran-lin)): 0.0324%
- EC50 (granulocytes (Gran-lin)): 32.7 nM
- Emax [6]: 18.3%
- EC50 [6]: 6.99 nM
- Emax [7]: 104%
- EC50 [7]: 6.96 nM
- Emax (monocytes (monocyte-lin)): 20.1%
- EC50 (monocytes (monocyte-lin)): 63.2 nM
- Emax [8]: 61.3%
- EC50 [8]: 17.4 nM
- Emax [9]: 204%
- EC50 [9]: 4.31 nM

Compound: Nc1cccc2c1CN(C1CCC(=O)NC1=O)C2=O (stereo not drawn) [Lenalidomide]
- Emax [1]: 4.52e-05%
- EC50 [1]: 786 nM
- Emax (B cells (B-lin)): 1.49e-05%
- EC50 (B cells (B-lin)): 1000 nM
- Emax [2]: 0.0004%
- EC50 [2]: 26.7 nM
- Emax (MK cells (MK-lin)): 2.23e-06%
- EC50 (MK cells (MK-lin)): 763 nM
- Emax [3]: 3.83e-05%
- EC50 [3]: 1050 nM
- Emax [4]: 1.48e-06%
- EC50 [4]: 262 nM
- EC50 [5]: 3060 nM
- Emax (granulocytes (Gran-lin)): 9.94e-05%
- EC50 (granulocytes (Gran-lin)): 3180 nM
- Emax [6]: 4.07e-06%
- EC50 [6]: 2690 nM
- Emax [7]: 5.98e-05%
- EC50 [7]: 937 nM
- Emax (monocytes (monocyte-lin)): 3.68e-06%
- EC50 (monocytes (monocyte-lin)): 292 nM
- Emax [8]: 1.33e-06%
- EC50 [8]: 1130 nM
- Emax [9]: 1.17e-05%
- EC50 [9]: 76.9 nM

Compound: Cc1sc2c(c1C)C(c1ccc(Cl)cc1)=N[C@@H](CC(=O)Nc1ccc(O)cc1)c1nnc(C)n1-2 [OTX015]
- Emax [1]: 0.05%
- EC50 [1]: 427 nM
- Emax (B cells (B-lin)): 76.8%
- EC50 (B cells (B-lin)): 425 nM
- Emax [2]: 115%
- EC50 [2]: 241 nM
- Emax (MK cells (MK-lin)): 26.9%
- EC50 (MK cells (MK-lin)): 4130 nM
- Emax [3]: 0.18%
- EC50 [3]: 114 nM
- Emax [4]: 12%
- EC50 [4]: 173 nM
- EC50 [5]: 851 nM
- Emax (granulocytes (Gran-lin)): 126%
- EC50 (granulocytes (Gran-lin)): 364 nM
- Emax [6]: 16.7%
- EC50 [6]: 88.3 nM
- Emax [7]: 0.16%
- EC50 [7]: 176 nM
- Emax (monocytes (monocyte-lin)): 37.5%
- EC50 (monocytes (monocyte-lin)): 264 nM
- Emax [8]: 40.1%
- EC50 [8]: 241 nM
- Emax [9]: 195%
- EC50 [9]: 1180 nM
